From PMC7897990, “TriTOX: A novel Trichomonas vaginalis assay platform for high-throughput screening of compound libraries” (International Journal for Parasitology: Drugs and Drug …, 2021)
Like-named read-outs stand apart in the source and are kept apart here.

How the values were obtained:
[1] = system: nontumorigenic neonatal foreskin fibroblast (NFF) cell line
[2] = system: Trichomonas vaginalis G3 trophozoites; conditions: for T.vaginalis_Absorbance_Rep1: replicate 1, raw absorbance; for T.vaginalis_Absorbance_Rep2: replicate 2, raw absorbance
[3] = NFF_NS1 screen 5 µg/mL, single concentration
[4] = HTS single concentration, parasite screen 1 µg/mL, replicate 1
[5] = HTS single concentration, parasite screen 1 µg/mL, replicate 2
[6] = replicate 1, parasite screen at 1 µg/mL
[7] = replicate 2, parasite screen at 1 µg/mL
[8] = NFF_NS1 screen at 5 µg/mL, NFF cells
[9] = parasite screen at 1 µg/mL, replicate 1
[10] = parasite screen at 1 µg/mL, replicate 2
[11] = NFF fibroblasts, single concentration 5 µg/mL
[12] = HTS replicate 1, parasite screen 1 µg/mL
[13] = HTS replicate 2, parasite screen 1 µg/mL
[14] = HTS, parasite screen at 1 µg/mL, replicate 1
[15] = HTS, parasite screen at 1 µg/mL
[16] = HTS, parasite screen at 1 µg/mL, replicate 2

CC[C@H](C)[C@H]1O[C@]2(C=C[C@@H]1C)C[C@@H]1C[C@@H](C/C=C(\C)[C@@H](O[C@H]3C[C@H](OC)[C@@H](O[C@H]4C[C@H](OC)[C@@H](O)[C@H](C)O4)[C@H](C)O3)[C@@H](C)/C=C/C=C3\CO[C@@H]4[C@H](O)C(C)C=C(C(=O)O1)[C@]34O)O2 (some centres unmarked) [BIA-A1579]
NFF_Activity [1, 3]: I (otherwise these were reported as inactive (I))
T.vaginalis_%inb_Rep1 [2, 4]: 15.89%
T.vaginalis_%inb_Rep2 [2, 5]: 15.40%

CCCCCC(=O)N[C@H]1CCOC1=O [BIA-H1495]
NFF_Activity ([1]; NFF cells, screen at 5 µg/mL): I (otherwise these were reported as inactive (I))
T.vaginalis_%inb_Rep1 [2, 6]: 10.40%
T.vaginalis_%inb_Rep2 [2, 7]: 12.70%

CC[C@@H](C)/C=C(C)/C=C/C(=O)c1c(O)c(-c2ccc(O)cc2)cn(O)c1=O [BIA-T1566]
NFF_Activity [1, 8]: I (otherwise these were reported as inactive (I))
T.vaginalis_%inb_Rep1 [2, 9]: 8.55%
T.vaginalis_%inb_Rep2 [2, 10]: 14.93%

C=CC(C)(C)C12CC3C(=O)Nc4ccccc4C(=O)N3C1N(C(C)=O)c1ccccc12 (centres unmarked) [BIA-A1687]
NFF_Activity [1, 3]: I (otherwise these were reported as inactive (I))
T.vaginalis_%inb_Rep1 [2, 4]: 18.36%
T.vaginalis_%inb_Rep2 [2, 5]: 16.20%

C[N+]1(C)CCC2(c3cccc4c3NC3C4(C45CC[N+](C)(C)C4Nc4ccccc45)CC[N+]3(C)C)c3ccccc3NC21.[I-].[I-].[I-] (centres unmarked) [BIA-H1942]
NFF_Activity ([1]; NFF cells, screen at 5 µg/mL): I (otherwise these were reported as inactive (I))
T.vaginalis_%inb_Rep1 [2, 6]: 9.49%
T.vaginalis_%inb_Rep2 [2, 7]: 13.53%

CO[C@@H]1C[C@H]2C=C[C@H]3[C@H]4O[C@]2(/C(C)=C\[C@@H](C)[C@@H]([C@@H](C)O)OC1=O)[C@@H]3[C@H](O)[C@@H](C)[C@H]4O [Nodusmicin]
NFF_Activity [1, 11]: I (otherwise these were reported as inactive (I))
T.vaginalis_%inb_Rep1 [2, 12]: 11.16%
T.vaginalis_%inb_Rep2 [2, 13]: 10.52%

C/C=C/[C@@H]1C=C[C@@H]2C[C@H](C)CC[C@H]2[C@]1(C)/C(O)=C1/C(=O)[C@@H](CO)N(C)C1=O [Epiequisetin]
NFF_Activity ([1]; NFF_NS1 screen at 5 µg/mL): I (otherwise these were reported as inactive (I))
T.vaginalis_%inb_Rep1 [2, 14]: 11.85%
T.vaginalis_Absorbance_Rep1 [2, 15]: 0.929
T.vaginalis_%inb_Rep2 [2, 16]: 4.34%
T.vaginalis_Absorbance_Rep2 [2, 15]: 0.68

COc1ccc2c(c1OC)C(=O)O[C@@H]2[C@H]1c2c(cc3c(c2OC)OCO3)CCN1C [Narcotine]
NFF_Activity [1, 11]: I (otherwise these were reported as inactive (I))
T.vaginalis_%inb_Rep1 [2, 12]: 11.80%
T.vaginalis_%inb_Rep2 [2, 13]: 11.76%

COc1c(-c2ccccc2)c2ccccc2[nH]c1=O [BIA-M1149]
NFF_Activity ([1]; NFF cells, screen at 5 µg/mL): I (otherwise these were reported as inactive (I))
T.vaginalis_%inb_Rep1 [2, 6]: 20.69%
T.vaginalis_%inb_Rep2 [2, 7]: 13.28%

C=CC1(C)CC(OC(=O)CSC2CC3CCC(C2)N3C)C2(C)C(C)CCC3(CCC(=O)C32)C(C)C1O (centres unmarked) [BIA-R1491]
NFF_Activity [1, 8]: I (otherwise these were reported as inactive (I))
T.vaginalis_%inb_Rep1 [2, 9]: 10.45%
T.vaginalis_%inb_Rep2 [2, 10]: 11.55%

Echinocandin B
NFF_Activity ([1]; NFF_NS1 screen at 5 µg/mL): I (otherwise these were reported as inactive (I))
T.vaginalis_%inb_Rep1 [2, 14]: 15.24%
T.vaginalis_Absorbance_Rep1 [2, 15]: 0.992
T.vaginalis_%inb_Rep2 [2, 16]: 6.58%
T.vaginalis_Absorbance_Rep2 [2, 15]: 0.711

O=C1C=C2C=C[C@@H]3C[C@@]2(O1)[C@H]1CCCCN31 [BIA-S1947]
NFF_Activity [1, 8]: I (otherwise these were reported as inactive (I))
T.vaginalis_%inb_Rep1 [2, 9]: 7.81%
T.vaginalis_%inb_Rep2 [2, 10]: 10.30%

Cc1cccc(O)c1C(=O)O [BIA-M1655]
NFF_Activity ([1]; NFF cells, screen at 5 µg/mL): I (otherwise these were reported as inactive (I))
T.vaginalis_%inb_Rep1 [2, 6]: 11.00%
T.vaginalis_%inb_Rep2 [2, 7]: 14.69%

O=C1c2c(O)cc(O)cc2OC1(O)Cc1ccc(O)c(O)c1 (centres unmarked) [BIA-A1767]
NFF_Activity [1, 3]: I (otherwise these were reported as inactive (I))
T.vaginalis_%inb_Rep1 [2, 4]: 15.13%
T.vaginalis_%inb_Rep2 [2, 5]: 38.61%

CC1=CC(O/C=C2\CCOC2=O)OC1=O (centres unmarked) [GR5]
NFF_Activity ([1]; NFF_NS1 screen at 5 µg/mL): I (otherwise these were reported as inactive (I))
T.vaginalis_%inb_Rep1 [2, 14]: 9.60%
T.vaginalis_Absorbance_Rep1 [2, 15]: 0.948
T.vaginalis_%inb_Rep2 [2, 16]: 13.10%
T.vaginalis_Absorbance_Rep2 [2, 15]: 0.852

CCC[C@H](O)C[C@@H]1CC[C@H](C)CCCCC(=O)N(C)[C@@H](Cc2ccc(OCCO)cc2)C(=O)O1 [PF1163A]
NFF_Activity [1, 11]: I (otherwise these were reported as inactive (I))
T.vaginalis_%inb_Rep1 [2, 12]: 11.61%
T.vaginalis_%inb_Rep2 [2, 13]: 10.39%

COC1=C(OC)C(=O)C(C)=C(C)C1=O [BIA-A1654]
NFF_Activity [1, 3]: A (active (A) compounds having >25% inhibitory activity)
T.vaginalis_%inb_Rep1 [2, 4]: 13.09%
T.vaginalis_%inb_Rep2 [2, 5]: 16.34%

COc1cc(C)c(C(=O)O)c(OC)c1 [Orsellinic acid dimethylether]
NFF_Activity [1, 11]: I (otherwise these were reported as inactive (I))
T.vaginalis_%inb_Rep1 [2, 12]: 12.73%
T.vaginalis_%inb_Rep2 [2, 13]: 13.02%

CS(=O)(=O)c1ccc([C@@H](O)[C@@H](CO)NC(=O)C(Cl)Cl)cc1 [BIA-T1486]
NFF_Activity [1, 8]: I (otherwise these were reported as inactive (I))
T.vaginalis_%inb_Rep1 [2, 9]: 8.02%
T.vaginalis_%inb_Rep2 [2, 10]: 12.00%

COc1cc2c(c3oc(=O)c4c(c13)CCOC4=O)[C@@H]1C=CO[C@@H]1O2 [BIA-A1234]
NFF_Activity [1, 3]: I (otherwise these were reported as inactive (I))
T.vaginalis_%inb_Rep1 [2, 4]: 14.70%
T.vaginalis_%inb_Rep2 [2, 5]: 13.02%

CC(C)C[C@H]1C(=O)O[C@H](C(C)C)C(=O)N(C)[C@@H](CC(C)C)C(=O)O[C@H](C(C)C)C(=O)N(C)[C@@H](CC(C)C)C(=O)O[C@H](C(C)C)C(=O)N(C)[C@@H](CC(C)C)C(=O)O[C@H](C(C)C)C(=O)N1C [BIA-B1557]
NFF_Activity [1, 3]: I (otherwise these were reported as inactive (I))
T.vaginalis_%inb_Rep1 [2, 4]: 15.24%
T.vaginalis_%inb_Rep2 [2, 5]: 16.12%

CC1CCCC(O)CCCCCc2cc(O)cc(O)c2C(=O)O1 (stereo not drawn) [Zearalanol, alpha-]
NFF_Activity ([1]; NFF fibroblast screen at 5 µg/mL, A = active, I = inactive): I (otherwise these were reported as inactive (I))
T.vaginalis_%inb_Rep1 [2, 14]: 6.97%
T.vaginalis_%inb_Rep2 [2, 16]: 13.04%

COc1cc(/C=C/C(=O)O)ccc1O [Ferulic acid]
NFF_Activity ([1]; NFF_NS1 screen at 5 µg/mL): I (otherwise these were reported as inactive (I))
T.vaginalis_%inb_Rep1 [2, 14]: 13.69%
T.vaginalis_Absorbance_Rep1 [2, 15]: 0.972
T.vaginalis_%inb_Rep2 [2, 16]: 12.64%
T.vaginalis_Absorbance_Rep2 [2, 15]: 0.832

C=CC(C)(C)[C@@]12C[C@H]3C(=O)N/C(=C/c4c[nH]cn4)C(=O)N3[C@@H]1Nc1ccccc12 [BIA-R1083]
NFF_Activity [1, 8]: A (active (A) compounds having >25% inhibitory activity)
T.vaginalis_%inb_Rep1 [2, 9]: 13.69%
T.vaginalis_%inb_Rep2 [2, 10]: 4.87%

CN[C@@H]1C[C@H]2O[C@@](C)([C@@H]1OC)n1c3ccccc3c3c4c(c5c6ccccc6n2c5c31)C(=O)NC4=O [BIA-O1137]
NFF_Activity [1, 3]: A (active (A) compounds having >25% inhibitory activity)
T.vaginalis_%inb_Rep1 [2, 4]: 63.59%
T.vaginalis_%inb_Rep2 [2, 5]: 75.50%

CC[C@H](C)C(=O)O[C@H]1C[C@@H](C)C=C2C=C[C@H](C)[C@H](CC[C@@H]3C[C@@H](O)CC(=O)O3)[C@H]21 [BIA-L1264]
NFF_Activity ([1]; NFF cells, screen at 5 µg/mL): A (active (A) compounds having >25% inhibitory activity)
T.vaginalis_%inb_Rep1 [2, 6]: 13.08%
T.vaginalis_%inb_Rep2 [2, 7]: 12.64%

CCC[C@@H]1C[C@@H](C(=O)N[C@@H]([C@H]2O[C@H](SC)[C@H](O)[C@@H](O)[C@H]2O)[C@@H](C)O)N(C)C1 [BIA-L1457]
NFF_Activity ([1]; NFF cells, screen at 5 µg/mL): I (otherwise these were reported as inactive (I))
T.vaginalis_%inb_Rep1 [2, 6]: 12.27%
T.vaginalis_%inb_Rep2 [2, 7]: 9.94%

O=C1CCCC2C3CC(CN12)C1CC(O)CCN1C3 (centres unmarked) [BIA-H1961]
NFF_Activity ([1]; NFF cells, screen at 5 µg/mL): I (otherwise these were reported as inactive (I))
T.vaginalis_%inb_Rep1 [2, 6]: 9.18%
T.vaginalis_%inb_Rep2 [2, 7]: 14.99%

CC1(C)C=Cc2c(ccc3ccc(=O)oc23)O1 [BIA-S1776]
NFF_Activity [1, 8]: I (otherwise these were reported as inactive (I))
T.vaginalis_%inb_Rep1 [2, 9]: 12.88%
T.vaginalis_%inb_Rep2 [2, 10]: 13.28%

CC(/C=C/[C@@]1(C)[C@H](C)CCC(=O)[C@@H]1C)=C\Cc1c(O)c(Cl)c(C)c(C=O)c1O [BIA-A1115]
NFF_Activity [1, 3]: I (otherwise these were reported as inactive (I))
T.vaginalis_%inb_Rep1 [2, 4]: 16.42%
T.vaginalis_%inb_Rep2 [2, 5]: 18.08%

CC[C@H](C)[C@@H]1NC(=O)C(C(C)=O)=C1O [BIA-T1277]
NFF_Activity [1, 8]: I (otherwise these were reported as inactive (I))
T.vaginalis_%inb_Rep1 [2, 9]: 8.60%
T.vaginalis_%inb_Rep2 [2, 10]: 14.81%

COc1cccc2oc3c4c(cc(OC)c3c(=O)c12)OC1OC=CC41 (centres unmarked) [BIA-M1214]
NFF_Activity ([1]; NFF cells, screen at 5 µg/mL): I (otherwise these were reported as inactive (I))
T.vaginalis_%inb_Rep1 [2, 6]: 13.54%
T.vaginalis_%inb_Rep2 [2, 7]: 12.19%

Cc1cc(O)c(O)c2oc(=O)c3c(O)cc(O)cc3c12 [BIA-H1558]
NFF_Activity ([1]; NFF cells, screen at 5 µg/mL): I (otherwise these were reported as inactive (I))
T.vaginalis_%inb_Rep1 [2, 6]: 10.09%
T.vaginalis_%inb_Rep2 [2, 7]: 9.24%

C/C=C/C1=CC(=O)[C@@H](O)[C@@H]1O [BIA-T1408]
NFF_Activity [1, 8]: I (otherwise these were reported as inactive (I))
T.vaginalis_%inb_Rep1 [2, 9]: 6.82%
T.vaginalis_%inb_Rep2 [2, 10]: 13.71%

O=c1cccc2n1C[C@H]1C[C@@H]2CN2CCCC[C@H]12 [BIA-A1939]
NFF_Activity [1, 3]: I (otherwise these were reported as inactive (I))
T.vaginalis_%inb_Rep1 [2, 4]: 7.92%
T.vaginalis_%inb_Rep2 [2, 5]: 14.14%

CCCCCCCC(=O)N[C@H]1CCOC1=O [Octanoyl-L-homoserine lactone]
NFF_Activity [1, 11]: I (otherwise these were reported as inactive (I))
T.vaginalis_%inb_Rep1 [2, 12]: 16.84%
T.vaginalis_%inb_Rep2 [2, 13]: 14.05%

Cc1cc(O)c(C=O)c2c1C(=O)Oc1c(CO)c(O)c3c(c1O2)C(O)OC3=O (centres unmarked) [BIA-S1741]
NFF_Activity [1, 8]: I (otherwise these were reported as inactive (I))
T.vaginalis_%inb_Rep1 [2, 9]: 17.25%
T.vaginalis_%inb_Rep2 [2, 10]: 7.43%
